Results published in patent publication US8258119B2, “Anti-cancer drugs and uses relating thereto for metastatic malignant melanoma and other cancers” (Kasina Laila Innova Pharmaceuticals, priority 2008, dated 2012).
≈ marks a conversion by molar mass, not a printed value.

Legend:
[1] = test system: B16F0 mouse melanoma cells; assay: LDH leakage cytotoxicity assay in B16F0 cells; type: cell-based; conditions: treatment concentration 100 μg/ml
Description: From the data obtained from the MTT assay (Table J), compound 1, compound 6 and compound 13 have been selected and their cytotoxicity potential has been further validated in LDH leakage assay. […] Cytotoxicity potential of DTIC and its derivative compounds were evaluated by measuring the leaked lactate dehydrogenase (LDH) into the culture supernatant (LDH Cytotoxicity Detection Roche Applied Sciences, Germany). The leaked LDH is directly proportional to the cell damage done by the cytotoxic compounds. In brief, cells were treated with test compounds at various concentrations and incubated for 48 h. Vehicle control culture wells received only a maximum of 0.5% DMSO. The cell free culture supernatants were mixed with catalyst and dye solution and allowed to incubate for 15 min at room temperature. Finally, the reaction was stopped and the optical density was measured at 492 nm in a microplate reader (BioRad, USA). […]
Comparative cytotoxicity potential of DTIC and Compound 6 on B16F0 mouse melanoma cells and A375 human melanoma cells were further evaluated by measuring the leaked lactate dehydrogenase (LDH) into the culture supernatant (LDH Cytotoxicity Detection Kit^Plus, Roche Applied Sciences, Germany), following the methodology described earlier (Example 20). […]

[2] = test system: MIA-PaCa2 human pancreas tumor cells; assay: MTT cell proliferation assay in MIA-PaCa2 cells; type: cell-based; conditions: MIA PaCa-2, read-out: 50% of inhibitory concentration, IC50 MIA-PaCa2
Description: MTT [3-(4,5-dimethylthiazol-2-yl)-2,5-diphenyltetrazolium bromide] incorporation based cell proliferation assay was performed using standard procedure with some modifications (38). The cytotoxic efficacy of the test compounds were evaluated in human malignant melanoma A2058 cells by MTT cell proliferation assay kit (Roche Applied Sciences, Germany). The assay was carried out according to the instruction provided by the vendor. Briefly, equal numbers of cells was plated in 96-well flat-bottomed plates in 100 μl of medium and were exposed to either DTIC or its derivative compounds at various concentrations up to 150 μg/ml for a period of three days. Vehicle control culture wells received only a maximum of 0.5% DMSO. Thereafter, 0.5 mg/ml of MTT reagent was added to each well and the microplate was incubated further for 4 h at 37° C. in presence of 5% CO2. Finally, the cells were solubilized by adding solubilizing solution and allowed to incubate at 37° C. overnight. After complete solubilization of the formazan crystals the absorbance was read at 540 nm in a microplate reader (BioRad, USA). The results (mean OD±SD) obtained from quadruplicate wells were used in calculation to determine the inhibition of cell proliferation (50% inhibitory concentration, IC50) of the test compounds.
Anti-tumor growth potential of Compound 1 and Compound 6 were evaluated in MCF-7 human breast tumor cells, MIA-PaCa2 human pancreas tumor cells and DU145 human prostate tumor cells by using MTT based cell proliferation studies as described earlier (example 19). The results (mean OD±SD) obtained from quadruplicate wells were used in calculation to determine the inhibition of cell proliferation (50% of inhibitory concentration, IC50) of the test compounds (Table 4).

B16F0 cells = assay: B16F0 mouse melanoma cell invasion assay (Matrigel); type: cell-based; conditions: 100 μg/ml, 24 h, compared to vehicle or DTIC
Description: The inhibitory effects of DTIC and […] on In vitro invasive ability of B16F0 were tested in cell invasion assay performed with by using Matrigel (BME Cultrex®, R&D Systems, USA) coated cell culture inserts (Becton Dickinson, USA) with 8 μm-pore membrane. Equal number (fifty thousands) of B16F0 cells were applied in each insert well and allowed to attach for 2 h at 37° C. and in presence of 5% CO2. Thereafter, the cellular invasion through the matrigel layer was performed in presence or absence of test compounds. Either 100 μg/ml of DTIC or Compound 6 was applied in the lower chamber of the invasion assembly. 0.1% DMSO was applied in the vehicle control culture chambers. After 24 h treatment, the matrigel layer containing cells was removed with cotton plug and the invaded cells on the other side of the membrane were fixed with methanol for 5 min and then stained with Giemsa. The stained membrane was mounted on a glass slide and number invaded cells were counted in 20 random fields (20× objective) under a light microscope (Nikon Eclipse TS 100).

[3] = test system: Human umbilical vein endothelial cells (HUVEC); assay: In vitro capillary formation assay; type: cell-based; conditions: HUVEC on Cultrex, 16 hours
Description: In vitro capillary formation assay was performed with Human umbilical vein endothelial cells (HUVEC), cultured on 10 mg/ml basement membrane extract (BME-Cultrex®, R&D Systems, USA) bed. The protocol of in vitro endothelial tube formation assay was the same as described earlier with some modifications (44). Briefly, four hundred microliters of Cultrex was coated at 4° C. in each well of 24-well culture plate and allowed to gel at 37° C. for 1 h. HUVECs were plated at a density of 7.5×10^4 cells per well with […] of DMEM supplemented with 10% fetal bovine serum and 4.5 g/l D-glucose. The cells were then treated with either DTIC or Compound 6 at desired concentration as indicated for 16 hours. Vehicle control cultures received only 0.1% DMSO. Pictures were taken under a Nikon Eclipse TS 100 microscope equipped with a Nikon Coolpix camera.

[4] = test system: normal human skin epithelial HS.531.sk cells; assay: LDH leakage assay on normal skin cells (tumor selectivity); type: cell-based
Description: From the data obtained from the MTT assay (Table J), compound 1, compound 6 and compound 13 have been selected and their cytotoxicity potential has been further validated in LDH leakage assay. […] Cytotoxicity potential of DTIC and its derivative compounds were evaluated by measuring the leaked lactate dehydrogenase (LDH) into the culture supernatant (LDH Cytotoxicity Detection Roche Applied Sciences, Germany). The leaked LDH is directly proportional to the cell damage done by the cytotoxic compounds. In brief, cells were treated with test compounds at various concentrations and incubated for 48 h. Vehicle control culture wells received only a maximum of 0.5% DMSO. The cell free culture supernatants were mixed with catalyst and dye solution and allowed to incubate for 15 min at room temperature. Finally, the reaction was stopped and the optical density was measured at 492 nm in a microplate reader (BioRad, USA). The results (mean OD±SD) obtained from quadruplicate wells were used in calculation to determine the cytotoxicity potential (50% of inhibitory concentration, IC50) of the test compounds. A plot of loss of cell viability as indicated by the leakage of LDH versus drug concentration is depicted in FIG. 1.
Next, to check whether the DTIC derivative compounds can selectively kill the melanoma cells without or minimally affecting the normal cells, we assessed the effect of the test compounds on normal human skin epithelial HS.531.sk cells. […] Whereas, 120 μg/ml of DTIC, compound 1, […] caused 5.8%, 4.2%, 2.4%, and 2.4% reduction in normal cell viability, respectively.

[5] = cited from earlier work
[6] = at therapeutic concentrations; cited from earlier work
[7] = patient with renal and hepatic dysfunctions

Row | SMILES | % increase in LDH secretion with respect to vehicle treated control in B16 F0 cells [1] [%] | IC50 [2] [µg/mL] | tumor cell invasion (B16F0 cells) | capillary formation [3] | reduction in normal cell viability ([4]; 120 μg/ml) [%] | effect on normal skin cell growth ([4]; up to 100 μg/ml) | average cumulative excretion of unchanged DTIC in the urine ([5]; in six hours) | initial half life [5, 7] [min] | terminal half life [5, 7] [min] | initial half life of disappearance from the plasma ([5]; plasma, biphasic) [min] | terminal half life of disappearance from the plasma ([5]; plasma, biphasic) | binding to human plasma protein [6]
1 | CN(C)/N=N/c1ccsc1C(=O)O [Compound 6, 3-[(dimethylamino)diazenyl]thiophene-2-carboxylic acid] | 61.5 | 81.9 (≈ 411 µM) | significantly reduced malignant tumor cell invasion | inhibition of capillary formation in a dose dependent manner |  |  |  |  |  |  |  | 
2 | CN(C)/N=N/c1[nH]cnc1C(N)=O [DTIC, 5-(3,3-dimethyl-1-trizeno)-imidazole-4-carboxamide, reference compound] | 5.7 | 203 (≈ 1110 µM) |  | promoted capillary formation | 5.8 | do not affect the normal cell skin cell growth | 40 % of the injected dose | 55 | 432 | 19 | five | not appreciably bound
